In ChEMBL document CHEMBL1201862, “PubChem BioAssay data set” (2004):
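A five-concentration, 48-hour dose response in 96-well plates underlies each endpoint, interpolated linearly between surrounding concentrations. GI50 is the concentration that inhibits growth by half.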 Calls of active or inactive are those of the source. No stated cut-off is given here; in the data, active = GI50 up to about 1.1 µM and inactive = higher.

What was measured:
Experiment in all cases: inhibition of tumour cell growth, NCI panel, 48 h
Malme-3M = tested on: Malme-3M
DU-145 = tested on: DU-145
SR = tested on: SR
SK-OV-3 = tested on: SK-OV-3
Hs-578T = tested on: Hs-578T
RPMI-8226 = tested on: RPMI-8226
COLO 205 = tested on: COLO 205
PC-3 = tested on: PC-3
T47D = tested on: T47D
K562 = tested on: K562
ACHN = tested on: ACHN
OVCAR-3 = tested on: OVCAR-3
HCT-116 = tested on: HCT-116
SW-620 = tested on: SW-620
CAKI-1 = tested on: CAKI-1
OVCAR-5 = tested on: OVCAR-5
U-251 = tested on: U-251
NCI-H522 = tested on: NCI-H522
NCI-H460 = tested on: NCI-H460
MDA-MB-231 = tested on: MDA-MB-231

| Compound | GI50 (Malme-3M) | GI50 (DU-145) | GI50 (SR) | GI50 (SK-OV-3) | GI50 (Hs-578T) | GI50 (RPMI-8226) | GI50 (COLO 205) | GI50 (PC-3) | GI50 (T47D) | GI50 (K562) | GI50 (ACHN) | GI50 (OVCAR-3) | GI50 (HCT-116) | GI50 (SW-620) | GI50 (CAKI-1) | GI50 (OVCAR-5) | GI50 (U-251) | GI50 (NCI-H522) | GI50 (NCI-H460) | GI50 (MDA-MB-231) |
| --- | --- | --- | --- | --- | --- | --- | --- | --- | --- | --- | --- | --- | --- | --- | --- | --- | --- | --- | --- | --- |
| CCN(CC)C(=O)N1CN(c2ccccc2)C2(CCN(CCCSc3ccc(F)cc3)CC2)C1=O | 15.9 µM (inactive) | 5.14 µM (inactive) | 3.8 µM (inactive) | 19 µM (inactive) | 2.79 µM (inactive) | 5.81 µM (inactive) | 1.92 µM (inactive) | 6.56 µM (inactive) | 4.01 µM (inactive) | 8.32 µM (inactive) | 3.01 µM (inactive) | 5.13 µM (inactive) | 2.58 µM (inactive) | 6.75 µM (inactive) | 87.7 µM (inactive) | 14.3 µM (inactive) | 11.9 µM (inactive) | 13.2 µM (inactive) | – | – |
| CCC(=O)Nc1cccc(NC(=O)c2c(Cl)c(Cl)c(Cl)c(Cl)c2-c2nc3ccccc3[nH]2)c1 | > 100 µM (inactive) | > 100 µM (inactive) | 17.6 µM (inactive) | – | > 100 µM (inactive) | 8.02 µM (inactive) | 53.1 µM (inactive) | 44.8 µM (inactive) | 7.82 µM (inactive) | 25.4 µM (inactive) | 80.7 µM (inactive) | > 100 µM (inactive) | 7.82 µM (inactive) | > 100 µM (inactive) | 82.4 µM (inactive) | > 100 µM (inactive) | – | 56.2 µM (inactive) | 37.8 µM (inactive) | – |
| N#CC(c1cc(Cl)ncn1)c1nc2ccccc2s1 (stereo not drawn) | 10.8 µM (inactive) | 5.56 µM (inactive) | – | 14.8 µM (inactive) | – | 2.49 µM (inactive) | 14.8 µM (inactive) | – | 2.67 µM (inactive) | 4.93 µM (inactive) | 18.3 µM (inactive) | 7.01 µM (inactive) | 7.53 µM (inactive) | 4.62 µM (inactive) | 18.6 µM (inactive) | 18.1 µM (inactive) | 4.02 µM (inactive) | 2.07 µM (inactive) | 4.27 µM (inactive) | 11.1 µM (inactive) |
| COc1cn2c(cc1=O)COc1ccc(-c3ccccc3)cc1-2 | 42.6 µM (inactive) | 52.4 µM (inactive) | 15.2 µM (inactive) | > 73.8 µM (inactive) | – | 42.9 µM (inactive) | 56 µM (inactive) | 43.2 µM (inactive) | 20.5 µM (inactive) | 89.3 µM (inactive) | 48.4 µM (inactive) | > 55.7 µM (inactive) | 40 µM (inactive) | > 100 µM (inactive) | 43.4 µM (inactive) | > 96.2 µM (inactive) | 65.2 µM (inactive) | 27.9 µM (inactive) | 37.6 µM (inactive) | – |
| CNC(=S)N/N=C(\C(=N/NC(=S)NC)c1ccccn1)c1ccccn1 | 4.73 µM (inactive) | 8.05 µM (inactive) | – | 0.726 µM (active) | 5.38 µM (inactive) | 32.8 µM (inactive) | 1.41 µM (inactive) | 1.03 µM (active) | – | 4.55 µM (inactive) | 2.99 µM (inactive) | 0.31 µM (active) | < 0.0306 µM (active) | 1.24 µM (inactive) | 5.04 µM (inactive) | – | 0.289 µM (active) | 1.77 µM (inactive) | 0.348 µM (active) | – |
| CCOC(=O)/C(C(=O)c1ccc([N+](=O)[O-])cc1)=C(\NS(=O)(=O)c1cc(C)c(Cl)cc1[S-])[n+]1ccc(N(C)C)cc1 | 14.4 µM (inactive) | 31 µM (inactive) | 31.6 µM (inactive) | 25.8 µM (inactive) | – | 28.1 µM (inactive) | 29.9 µM (inactive) | 16.7 µM (inactive) | 50.8 µM (inactive) | 32.1 µM (inactive) | 30.1 µM (inactive) | 32.3 µM (inactive) | 19.2 µM (inactive) | – | 35.1 µM (inactive) | 28.8 µM (inactive) | 41.6 µM (inactive) | 12.4 µM (inactive) | 34.9 µM (inactive) | 47.9 µM (inactive) |
| COc1cc(/C=N/c2ccccn2)cc(OC)c1OC | > 100 µM (inactive) | > 100 µM (inactive) | > 63.2 µM (inactive) | > 63.8 µM (inactive) | > 100 µM (inactive) | 65 µM (inactive) | > 100 µM (inactive) | – | > 100 µM (inactive) | > 100 µM (inactive) | > 100 µM (inactive) | > 100 µM (inactive) | > 100 µM (inactive) | > 100 µM (inactive) | > 100 µM (inactive) | > 100 µM (inactive) | > 100 µM (inactive) | > 100 µM (inactive) | > 100 µM (inactive) | > 100 µM (inactive) |
| CO[C@@](c1ccccc1)(c1nc(C#N)c(N)o1)C(F)(F)F | > 100 µM (inactive) | > 100 µM (inactive) | – | > 100 µM (inactive) | – | 36.3 µM (inactive) | > 100 µM (inactive) | > 100 µM (inactive) | > 100 µM (inactive) | 33.7 µM (inactive) | > 100 µM (inactive) | > 100 µM (inactive) | 78.2 µM (inactive) | 86.5 µM (inactive) | > 100 µM (inactive) | – | > 100 µM (inactive) | 26.6 µM (inactive) | – | > 100 µM (inactive) |
| Cc1ccc(S(=O)(=O)N/N=C(\c2nc3ccc([N+](=O)[O-])cc3nc2O)C(O)c2ccccc2Cl)cc1 (stereo not drawn) | > 100 µM (inactive) | – | > 100 µM (inactive) | > 100 µM (inactive) | – | 61.1 µM (inactive) | > 100 µM (inactive) | – | – | 28.2 µM (inactive) | > 100 µM (inactive) | > 100 µM (inactive) | > 100 µM (inactive) | > 100 µM (inactive) | > 100 µM (inactive) | > 100 µM (inactive) | > 100 µM (inactive) | 6.93 µM (inactive) | > 100 µM (inactive) | – |
| C=CCC1(CN(C)C)CC/C(=C\c2ccc(Cl)cc2)C1=O (stereo not drawn) | > 74.5 µM (inactive) | – | 0.0973 µM (active) | > 100 µM (inactive) | – | 17 µM (inactive) | 27.2 µM (inactive) | – | – | 26.9 µM (inactive) | 44.8 µM (inactive) | 36.1 µM (inactive) | 19.9 µM (inactive) | 26.9 µM (inactive) | > 100 µM (inactive) | > 77.4 µM (inactive) | 38.1 µM (inactive) | 18.9 µM (inactive) | 20.2 µM (inactive) | – |
| CC(C)(C)OC(=O)C(C#N)C(=O)c1ccc(C(=O)O)[nH]1 (stereo not drawn) | 35.2 µM (inactive) | 48.2 µM (inactive) | – | 42 µM (inactive) | – | 22.8 µM (inactive) | 40.2 µM (inactive) | 33.7 µM (inactive) | 34.6 µM (inactive) | 22.6 µM (inactive) | 32.2 µM (inactive) | 29.3 µM (inactive) | 38.4 µM (inactive) | 34.9 µM (inactive) | 18.8 µM (inactive) | 48.4 µM (inactive) | 30.6 µM (inactive) | 33.5 µM (inactive) | 29.7 µM (inactive) | 29.4 µM (inactive) |
| COc1c(OC)c(OC)c(-c2cc(=O)c3c(OC)c(OC)c(OC)c(OC)c3o2)c(OC)c1OC | 47 µM (inactive) | 62.5 µM (inactive) | > 100 µM (inactive) | 71.1 µM (inactive) | 52.5 µM (inactive) | 60.8 µM (inactive) | 37.4 µM (inactive) | – | 9.14 µM (inactive) | 41.1 µM (inactive) | 32.7 µM (inactive) | 16.3 µM (inactive) | 20.6 µM (inactive) | 30 µM (inactive) | 43.4 µM (inactive) | > 100 µM (inactive) | 30.1 µM (inactive) | 16.2 µM (inactive) | 31.3 µM (inactive) | 29.9 µM (inactive) |
| O=C1/C(=C/c2ccc(Cl)cc2)CCCc2ccccc21 | 13.6 µM (inactive) | 23.1 µM (inactive) | 13.6 µM (inactive) | 43.1 µM (inactive) | 11.7 µM (inactive) | 12.8 µM (inactive) | 20.6 µM (inactive) | 19.6 µM (inactive) | – | 3.24 µM (inactive) | 16.9 µM (inactive) | 18.9 µM (inactive) | 13.6 µM (inactive) | 15.4 µM (inactive) | 39.4 µM (inactive) | 16.9 µM (inactive) | 14.2 µM (inactive) | 11.7 µM (inactive) | 17.7 µM (inactive) | 19.6 µM (inactive) |
| CCOC(=O)C(C(=O)OCC)C(=O)c1ccccc1C(=O)c1ccccc1 | > 100 µM (inactive) | 43.8 µM (inactive) | 18.1 µM (inactive) | > 100 µM (inactive) | 84.7 µM (inactive) | – | > 100 µM (inactive) | – | > 100 µM (inactive) | > 100 µM (inactive) | > 100 µM (inactive) | 74 µM (inactive) | 59 µM (inactive) | 19.5 µM (inactive) | > 100 µM (inactive) | > 100 µM (inactive) | > 100 µM (inactive) | > 100 µM (inactive) | > 100 µM (inactive) | > 100 µM (inactive) |
| O=S(=O)(c1ccccc1)C(c1ccc2ccccc2n1)S(=O)(=O)c1ccccc1 | > 100 µM (inactive) | > 100 µM (inactive) | > 100 µM (inactive) | – | > 100 µM (inactive) | > 100 µM (inactive) | > 100 µM (inactive) | > 100 µM (inactive) | – | > 100 µM (inactive) | > 100 µM (inactive) | > 100 µM (inactive) | > 100 µM (inactive) | > 100 µM (inactive) | > 100 µM (inactive) | > 100 µM (inactive) | > 100 µM (inactive) | 90.2 µM (inactive) | > 100 µM (inactive) | > 100 µM (inactive) |
| CC1N[B@@-](C)(c2ccc(C(F)(F)F)cc2)OC1c1ccccc1 (stereo partly drawn) | 86.3 µM (inactive) | > 100 µM (inactive) | 31.3 µM (inactive) | > 100 µM (inactive) | – | 34.7 µM (inactive) | > 100 µM (inactive) | 53.3 µM (inactive) | > 100 µM (inactive) | 66.2 µM (inactive) | 36.9 µM (inactive) | 57.8 µM (inactive) | 89.3 µM (inactive) | > 100 µM (inactive) | – | > 100 µM (inactive) | > 100 µM (inactive) | – | > 100 µM (inactive) | > 100 µM (inactive) |
